Experimental data reported in article PMC4977052, “On the Utility of ToxCast™ and ToxPi as Methods for Identifying New Obesogens” (Environmental Health Perspectives, 2016).
pEC50: −log10 of the molar value. Read-outs that look alike come from different tables or passages of the source.

What was measured:
GAL4-mPPARγ = target: T1, GAL4-mPPARγ (Mus musculus, UniProt P37238); test: GAL4-mPPARγ activation, transient transfection luciferase reporter in COS7 cells; assay type: cell-based; settings: for Activation of GAL4-PPARγ (text): COS7, 100 μM through 0.137 μM; for pEC50: COS7, ligands 24 hr, nonlinear regression variable slope, spirodiclofen constrained at top dose, read-out: PPARγ agonists: EC50, Fig 1A / Fig 4A; for PPARγ agonists: EC10, Fig 1A / Fig 4A: COS7, computed from EC50 in GraphPad Quick Calc
T1 construct: expressed in transfected cells; host or cells: COS7

PPARγ = settings: cited from earlier work; for PPARγ agonists: EC10, ATG: AC10, ToxCast 2014 release; for AC50: PPARγ, NA = not active; for pEC50: gain AC50, ToxCast 2014 release, read-out: PPARγ agonists: EC50, ATG
[1] = test system: mouse bone marrow-derived mesenchymal stem cells (mBMSCs); assay type: cell-based; settings: for Induction of adipogenesis in mBMSCs, doses: lipid accumulation, Nile red/Hoechst; for Induction of adipogenesis in mBMSCs, doses / Adipogenic gene expression (Fabp4, Fsp27, Lpl), QPCR: Figure 2B; for Adipogenic gene expression (Fabp4, Fsp27, Lpl), QPCR: mBMSCs
Description: A total of 8 × 10^4 cells/well mouse bone marrow-derived mesenchymal stem cells (mBMSCs) (OriCell™) were seeded in 12-well plates in basic medium: high-glucose DMEM (Hyclone) containing 10% calf bovine serum (Premium Select, Atlanta Biologicals), 100 IU/mL penicillin, 100 μg/mL streptomycin, and 1 mM sodium pyruvate. mBMSCs were induced to differentiate in differentiation media (low glucose αMEM containing 15% fetal bovine serum (Premium Select, Atlanta Biologicals), 100 IU/mL penicillin, 100 μg/mL streptomycin and 2 mM L-glutamine) with adipogenic cocktail (500 μM isometylbutylxanthine, 1 μM dexamethasone, 5 μg/mL insulin) and either 500 nM ROSI, 50 nM TBT or ToxCast™ chemicals (as noted for 3T3-L1 cells) for 14 days, replacing the media every 3 days.
Cells were either fixed in 3.7% formaldehyde in phosphate-buffered saline (PBS) for 30 min at room temperature (RT) for lipid quantitation, or homogenized in TriPure (Roche, Mannheim, Germany) for gene expression analysis. For lipid quantitation, fixed cells were washed twice with PBS and maintained in PBS overnight at 4°C to release residual phenol red. Background of cells were measured prior to staining. Cells were stained with 1 μg/mL Nile red (CAS No. 7385-67-3) (to detect lipid accumulation) and 1 μg/mL Hoechst 33342 (ThermoFisher Scientific) (to detect nuclei as a surrogate for cell number) in PBS for 15 min in the dark at RT and washed twice with PBS. […] Background values of Hoechst and Nile red were subtracted from the RFUs after staining and the ratio RFUNile Red:RFUHoechst was calculated. Data are represented as mean ± SEM. Total RNA was isolated using TriPure (Roche) as recommended by the manufacturer. Reverse transcription and quantitative real-time RT-PCR (QPCR) were performed using Transcriptor RT and SYBR® Green Master Mix (Roche). cDNA was quantitated in a LightCycler® 480 System (Roche Diagnostics, Basel, Switzerland) using primer sets listed in Table S4. Each primer set amplified a single band as determined by gel electrophoresis and melting curve analysis. QPCR data were analyzed using the 2^ΔΔCt method ([Livak and Schmittgen 2001]) relative to ribosomal protein 36b4, normalizing to 0.1% DMSO vehicle. Error bars represent the SEM from four to six biological replicates calculated using standard propagation of error ([Bevington and Robinson 2003]).

COS7 cells = test: Cytotoxicity in transfected COS7 cells measured as decreased β-galactosidase activity
Description: pCMX-Gal4, pCMX-Gal4-mPPARγ, and pCMX-Gal4-hRXRα were previously described ([Grün et al. 2006]). Transient transfections were performed in COS7 cells as described ([Chamorro-García et al. 2012]). Briefly, COS7 cells were seeded at 15,000 cells per well in 96-well tissue culture plates in 10% calf bovine serum. The following day, cells were transfected in Opti-MEM at ~ 90% confluency. One microgram of CMX-GAL4 effector plasmid was co-transfected with 5 μg tk-(MH100)4-luciferase reporter and 5 μg of CMX-β-galactosidase transfection control plasmids in Opti-MEM® using Lipofectamine® 2000 reagent (Invitrogen™ Life Technologies, Carlsbad, CA, USA), following the manufacturer’s recommended protocol. All chemicals were solvated in dimethyl sulfoxide (DMSO). After overnight incubation, the medium was replaced with Dulbecco’s Modified Eagle Medium (DMEM; HyClone, Logan, UT, USA), 10% resin charcoal stripped fetal bovine serum (FBS) plus ligands at concentrations indicated in the figure legends for an additional 24 hr. DMSO concentration was maintained at 0.05% across all chemical treatments. Cells were lysed and assayed for luciferase and β-galactosidase activity as previously described ([Forman et al. 1995]). All transfections were performed in triplicate and reproduced in multiple experiments. Data are reported as fold induction or reduction over vehicle ([…]) controls ± SEM (standard error of the mean) using standard propagation of error ([Bevington and Robinson 2003]). […] The EC50, EC10, IC50, and IC10 values from NCGC and ToxCast™ are reported from gain AC50 and AC10 values in the ToxCast™ 2014 release ([Filer et al. 2014]).
Figure 1 ToxCast™ Chemical Activity on PPARγ. The ability of a graded dose series of ToxCast™ chemicals to (A) activate or (B) antagonize GAL4-mPPARγ was tested in transiently transfected COS7 cells. (A, B) Data points are averages of triplicate transfections (three biological replicates). […] Data are depicted as (A) fold induction or (B) reduction over vehicle (0.05% DMSO) controls ± SEM. (A) ToxCast™ chemicals were tested in 3-fold serial dilutions from 100 μM through 0.137 μM, with the final data point being 0.05% DMSO. Rosiglitazone serves as a positive control activator. (B) ToxCast™ chemicals were tested in 3-fold serial dilutions from 100 μM, in competition with 50 nM rosiglitazone (Rosi). […] (C) EC50, EC10, IC50, and IC10 values calculated from A and B are reported and compared to commercial assays (see Figure S1). Note: ATG, Attagene GAL-PPARγ activation assay; NCGC, GeneBLAzer® agonist (EC values) or antagonist (IC values) assays. Triphenyltin was previously published ([Kanayama et al. 2005]).

[2] = Cos-7 transient transfection, PPARγ activation or antagonism assays (Table 1, Table S6)
[3] = ref Filer et al. 2014, read-out: ATG Agonist AC50, 2014 Release
[4] = ref Knudsen et al. 2011, read-out: ATG Agonist AC50, 2011 Release

T1 sequence (P37238 with tags, fused parts or gaps limits assumed): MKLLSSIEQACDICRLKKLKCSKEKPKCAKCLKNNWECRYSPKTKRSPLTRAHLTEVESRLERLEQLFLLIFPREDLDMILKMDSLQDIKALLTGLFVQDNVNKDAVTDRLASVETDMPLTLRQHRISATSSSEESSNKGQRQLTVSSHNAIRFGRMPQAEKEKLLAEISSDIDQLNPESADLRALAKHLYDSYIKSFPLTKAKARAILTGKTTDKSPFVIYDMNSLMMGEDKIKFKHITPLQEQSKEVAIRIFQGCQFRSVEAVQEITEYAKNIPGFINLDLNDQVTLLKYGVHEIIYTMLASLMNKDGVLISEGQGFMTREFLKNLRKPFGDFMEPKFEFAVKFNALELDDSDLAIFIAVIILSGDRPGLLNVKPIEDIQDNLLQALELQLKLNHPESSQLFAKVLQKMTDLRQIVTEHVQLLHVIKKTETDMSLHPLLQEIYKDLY

| SMILES | Activation COS7 (result in words), ToxCast PPARγ list (GAL4-mPPARγ) | Activation of GAL4-PPARγ (text) (GAL4-mPPARγ) | Activation of GAL4-PPARγ (text) (GAL4-mPPARγ; listed as quinoxyfen) | pEC50 (GAL4-mPPARγ) | PPARγ agonists: EC10, Fig 1A / Fig 4A (GAL4-mPPARγ) [nM] | AC50 (GAL4-mPPARγ; Cos-7 transient transfection) [nM] | Activation COS7 (result in words), ToxCast PPARγ list (GAL4-mPPARγ; [2]) | Activation COS7 (result in words), ToxPi chemicals (GAL4-mPPARγ; Cos-7 transient transfection, PPARγ or RXRα activation assays (Table 2)) | PPARγ agonists: EC10, ATG (PPARγ; ref Filer et al. 2014) [nM] | AC50 (PPARγ; [3]) [nM] | AC50 (PPARγ; [4]) [nM] | pEC50 (PPARγ; ref Filer et al. 2014) | Adipogenic differentiation of mBMSCs (result in words) ([1]; 14 days, Figure 7) | Concentration at which cytotoxicity (decreased β-galactosidase activity) was observed (COS7 cells; transfected COS7 cells, 24 hr) [µM] | AC50 (GAL4-mPPARγ; read-out: Activation AC50 (PPARγ activators), Cos-7 transient transfection) [nM] | Induction of adipogenesis in mBMSCs, doses ([1]; 14 days) | Adipogenic gene expression (Fabp4, Fsp27, Lpl), QPCR [1] | Concentration at which cytotoxicity (decreased β-galactosidase activity) was observed (COS7 cells; African green monkey, 24 h) [µM] | Lipid accumulation: TOXIC mark in place of bar [1] | Concentration toxic to mBMSCs ([1]; mouse, 14 days) [µM] |
| --- | --- | --- | --- | --- | --- | --- | --- | --- | --- | --- | --- | --- | --- | --- | --- | --- | --- | --- | --- | --- |
| Fc1ccc(Oc2ccnc3cc(Cl)cc(Cl)c23)cc1 [Quinoxyfen] | Inactive | weakly active at 100 μM and 33 μM doses | activated PPARγ | 4.48 | 14240 | 33400 | PPARγ Activator | PPARγ activator | 3980 | 5100 | 6600 | 5.29 | could differentiate these uncommitted stem cells into adipocytes | – | – | – | – | – | – | – |
| CCC(C)(C)C(=O)OC1=C(c2ccc(Cl)cc2Cl)C(=O)OC12CCCCC2 [Spirodiclofen] | – | activated GAL-PPARγ | – | 4.89 | 7270 | – | PPARγ activator | – | 100 | 1900 | 3600 | 5.73 | – | 100 | 12800 | induced adipogenesis at 10 and 20 μM | increases | – | – | – |
| O=[N+]([O-])c1cc(C(F)(F)F)c(Cl)c([N+](=O)[O-])c1Nc1ncc(C(F)(F)F)cc1Cl [Fluazinam] | – | did not activate PPARγ | – | – | – | – | – | – | – | 1200 | 510 | – | – | 100 | – | – | – | – | – | – |
| CCC(C)(NC(=O)c1cc(Cl)c(C)c(Cl)c1)C(=O)CCl (stereo not shown) [Zoxamide] | – | activated GAL-PPARγ | – | 5.88 | 310 | 1310 | PPARγ activator | – | 180 | 1300 | 1500 | 5.90 | – | – | – | induced differentiation at 2 and 10 μM | increases | ≥ 10 | TOXIC | ≥ 20 |
